System: Mycobacterium tuberculosis H37Rv growth inhibition, no glycerol
Assay: Mycobacterium tuberculosis H37Rv growth inhibition, no glycerol, confirmatory dose response (AID 449764);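 further: growth read after 7 days of incubation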
Details: for IC90: measured here: IC90 growth inhibition

Structure (SMILES)	IC50 [µM]	IC90 [µM]
O=C(c1ccccc1)c1nn(-c2ccc(Cl)cc2)c(=O)cc1C(F)(F)F	20.1	31.1
O=C1/C(=C\c2ccncc2)CCc2ccccc21	45.9	49.7
CCOC(=O)Cn1nc(-c2ccccc2)nc1-c1ccccc1	13.1	29.4
Cc1ccc(Cn2c(C(CO)Nc3nc(-c4ccc(F)cc4)cs3)nc3ccccc32)cc1 (centres undefined)	66.4	91.8
N#CC(C(=O)Nc1ccccc1)=C1Nc2ccccc2N1	39.1	> 100
O=c1oc2ccccc2c(O)c1/C=C1\C=Nc2ccccc21	38.8	64.6
CCCCN(C)CCNC(=O)c1ccc(Cn2c(=S)[nH]c3ccc(Br)cc3c2=O)cc1	18.9	27.9
O=C(/C=C/c1ccco1)Oc1ccc(C(=S)N2CCOCC2)cc1	60.3	> 100
O=C(CCS(=O)(=O)c1ccc(F)cc1)Nc1nc(-c2ccccn2)cs1	12.8	29.1
Cc1ccc(C)c(-c2nnc(NC(=O)C3=COCCO3)o2)c1	13.9	30.2
N=c1oc2cc(O)ccc2cc1C(=O)Nc1ccc(Br)cc1	1.72	3.96
Cc1ccccc1N/N=C/c1c(C)nc2ccccn12	57.8	72.5
c1ccc(Cn2c(CNc3nc4ccccc4n3CCN3CCCCC3)nc3ccccc32)cc1	44.6	72.8
Cc1ccc(S(=O)(=O)N2CCC(C(=O)OCc3ccccc3)CC2)cc1C	46.5	52.2
Cn1ncnc2c(=O)n(C)c(=O)nc1-2	2.84	4.51
COC(=O)C1CC(=O)N(c2ccc(OCc3ccccc3Cl)cc2)C1 (centres undefined)	1.26	4.8
CCCCCOc1ccc(NC2=CC(=O)CCC2)cc1	77.8	99
Cc1oc2c(c1C(=O)NCc1cccnc1)C(=O)c1ccccc1C2=O	12.3	14.2
Cc1cc(C)c(C)c(N=Nc2nc3ccccc3n2C)c1C	11.2	12.6
COC(=O)C1=C(c2ccc(OCc3ccccc3)cc2)C[C@@H]2CC[C@H]1N2C(=O)NC1CCN(Cc2ccccc2)CC1	25.3	29.1
CCc1ccc(NC(=S)/N=C(\N)Nc2nc(C)c3cc(CC)ccc3n2)cc1	10.9	21.1
Cc1sc2ncnc(N3CCC(C(=O)N(CC(C)C)c4nc5ccccc5s4)CC3)c2c1C		> 100
Cc1ccc(-c2c[n+](CC(=O)N3c4ccccc4Sc4ccccc43)c3n2CCC3)cc1	22.9	26.1

Structure (SMILES)	IC50 [µM]	IC90 [µM]
CCN1c2ccccc2N(C)C1(C)c1ccccc1 (centres undefined)	8.65	10.5
c1ccc(CN2CCC(Nc3nc(-c4ccccc4)nc4ccccc34)CC2)cc1	10.9	16.6
CC(C)(C)OC(=O)NCCCCCc1nnc(SCc2ccc(F)cc2)o1	75	> 100
N#Cc1nc(-c2ccc(OCc3ccccc3)cc2)oc1NCCCn1ccnc1	37.5	43
O=C(CSc1ccc(Cl)cc1)N1CCC(c2nc3ccccc3s2)CC1	53.8	68.3
N#C/C(N=Nc1ccccc1O)=N\Nc1ccccc1O	2.25	3.64
C=CCc1c(C)nc(C)nc1N/N=C/c1ccccc1O	4.61	8.85
COc1c[nH]n(C2CCCCC2)c(=O)c1=O	24.1	27.6
Cc1cc(C)cc(NC(=O)c2ccc(Cn3nc(C)c(Cl)c3C)o2)c1	34.8	48.3
COc1ccccc1C1CC(c2c(-c3ccccc3)c3cc(Cl)ccc3[nH]c2=O)=NN1S(C)(=O)=O (centres undefined)		> 100
Cc1nonc1OCCNCCNc1ccc([N+](=O)[O-])c2cccnc12	17.7	31.4
COc1cc(NC(=O)c2ccc(COc3ccccc3Br)o2)cc(OC)c1OC	67	> 100
CCOC(=O)N1CCc2c(sc(NC(=O)c3ccc(Cl)s3)c2C(N)=O)C1	6.96	19.1
C(=N\Nc1ccc2ccccc2n1)/c1ccc2c(c1)OCCO2	5.03	7.13
Cc1ccc(-c2nc3ccsc3c(=O)o2)cc1	4.19	> 100
FC(F)(F)c1ccc(Nc2nnnc3ccccc23)cc1	48.8	55.3
Cc1ccn2c(-c3csc(NCc4ccccc4)n3)c(C)nc2c1	45.5	51.5
O=C(CCl)NCCCCCCCCCNC(=O)CCl	< 0.2	> 100
O=C(Nc1cc(C(F)(F)F)ccc1Cl)C(Sc1cccc[n+]1[O-])c1ccccc1 (centres undefined)	43.7	48.2
CCN1CCN(Cc2ccc(NC(=O)c3ccc(C)c(/C=C/c4cnc(Nc5cc(N6CCNCC6)nc(C)n5)cn4)c3)cc2C(F)(F)F)CC1	66.6	89.8
Cc1c(Cl)ccc2sc(N3CCN(C(=O)C4=COCCO4)CC3)nc12	22.5	30.6
CCCCN(CCCC)CCC(O)c1cc2c(Cl)cc(Cl)cc2c2cc(C(F)(F)F)ccc12 (centres undefined)	17.6	23.4
Cc1ccc(CN2CCN(/N=C/c3ccc(Cl)c([N+](=O)[O-])c3)CC2)cc1	39.4	55.3

Structure (SMILES)	IC50 [µM]	IC90 [µM]
O=C(CNC(=O)c1ccco1)OCc1ccc(C(=O)Oc2ccccc2)cc1	16.6	26.6
COC(=O)c1ccc2c(c1O)C(=O)c1ccccc1C2=O	83.6	89.4
COc1cccc2c1C(CO)N1C(C#N)C3CC(C(=O)O)C(C1C2)N3C (centres undefined)	2.71	3
Oc1cccc(-c2nc3ccc4ccccc4c3c3c2CCC3)c1	32.4	54.3
CS(=O)(=O)c1nc(-c2ccccc2)cc(C(F)(F)F)n1	18	27.6
COCCn1nnnc1C(c1cc2cc(OC)ccc2[nH]c1=O)N1CCC(Cc2ccccc2)CC1 (centres undefined)	89.8	> 100
COc1ccc(COc2cc(-c3cccc(OC)c3)nc3ccc(NC(=O)c4ccc(OC)cc4)cc23)cc1	24	> 100
CN1C2CCC1/C(=C/c1ccccn1)C(=O)/C2=C\c1ccccn1	23.4	26.8
Cc1onc(-c2ccccc2Cl)c1C(=O)Oc1cccc2cccnc12	3.38	3.98
O=[N+]([O-])c1cc(-c2ccc(/C=N\n3cnnc3)o2)cc([N+](=O)[O-])c1	45.5	49.9
CCc1ccc(Nc2n[n+](C)c(-c3ccncc3)s2)cc1	42.1	47.6
COc1cc2c(C(=O)N3CCN(c4cccc(Cl)c4)CC3)cn(CC(C)C)c(=O)c2cc1OC	47.4	73.4
C=CCS/C(N)=N\N=C\c1c(O)ccc2ccccc12	35.6	55.4
CC(C)OC(=O)c1ccc(NC(=S)NC(=O)c2cncc(Br)c2)cc1		> 100
COc1ccc(CN2CCN(C(c3ccc(F)cc3)c3ccc(F)cc3)CC2)c(OC)c1OC	22.9	40.5
CC/C(C)=N/NC(=S)NCc1ccco1	81.1	91.7
Cc1cc(-c2n[nH]c(=S)n2/N=C/C(Br)=C/c2ccccc2)n[nH]1	5.55	8.35
C/C(Cl)=C\COc1cc(C)nc2c(Br)cccc12	21.2	24.4
COC(=O)C1C2c3ccccc3OC1(C)N=c1s/c(=C/c3cnn(C)c3C)c(=O)n12 (centres undefined)	6.44	41.1
CCOC(=O)COc1cc(O)c2c(=O)cc(-c3ccccc3)oc2c1	1.38	2.03
Clc1cc(Cl)cc(Nc2ncn[nH]2)c1	64.6	> 100
Cc1cccc(CNc2ncnc3ccc(-c4ccc5c(c4)OCCO5)cc23)c1	10.1	12.7
O=C(COC(=O)C1=COCCO1)Nc1cccc(Oc2ccccc2)c1	9.49	37.2

Structure (SMILES)	IC50 [µM]	IC90 [µM]
Nc1c(C(=O)OCC2CCCO2)c2nc3ccccc3nc2n1C1CCCC1 (centres undefined)	60.7	86.8
Oc1cc(NCc2cccnc2)ccc1-c1nc2ccccc2o1	31.6	61.3
CC(C)(C)c1ccc(OCCC(=O)OCC(=O)NC(=O)NC2CCCC2)cc1	11.8	18.9
Cc1ccc(-n2c(Cl)c(Cl)nc(Cl)c2=O)cc1	16.3	24.8
O=C1c2ccccc2-c2onc3ccc(Oc4ccccc4)c1c23	10.3	14.4
Oc1cc(Nc2ccccc2)cc2cccnc12	19.7	24.7
O=C(c1ccc([N+](=O)[O-])s1)N1CCN(c2ccc(C(F)(F)F)cn2)CC1	13.7	17.5
O=C(N/N=C/c1cccc2cccnc12)[C@H]1C[C@@H]1c1ccccc1	38.2	56
CCN(CC)S(=O)(=O)c1ccc2[nH]cc(C(=O)NCCC3=CCCCC3)c(=O)c2c1	91.7	> 100
CNc1ccc2nc3ccccc3[n+](C)c2c1	1.16	1.68
CCOC(=O)N1CCN(c2nc(N(c3ccccc3)c3ccccc3)nc(-n3ccnc3)n2)CC1	98.2	> 100
COc1ccc(-c2nnc3sc(C4CCCCC4)nn23)cc1OC	45.6	51.6
Nc1nnnn1/N=C/C(Br)=C/c1ccccc1	5.6	10.9
CC(Sc1nnc(NC2CCCCC2)s1)C(=O)Nc1ccc2c(c1)C(=O)c1ccccc1C2=O (centres undefined)	11.2	14.4
O=[N+]([O-])c1cn(-c2nc(-c3ccco3)cc(C(F)(F)F)n2)cn1	3.79	> 100
CCc1cc(OCCCCNCc2ccccc2)ccc1Cl	26.9	36
O=C(CCC(=O)NC1CCCCCCC1)Nc1nnc(C(F)(F)F)s1	12.1	13.8
COC(=O)C(C)Oc1ccc(Cc2ncc(C(F)(F)F)cc2Cl)cc1 (centres undefined)	3.43	5.97
Cc1ccc(NC(=O)COc2ccc(-n3ccnc3)cc2)cc1Cl	44.5	58.7
CN(Cc1ccc(Cl)s1)C(=O)CCl	1.54	1.73
Cc1cc2cc(CNC(=O)NC3CCCCC3)ccc2[nH]1	36	53.7
COc1ccc(-c2csc3ncnc(N4CCN(c5ccccc5OC)CC4)c23)cc1	22.8	25.5

Reference: PubChem BioAssay AID449764 (Southern Research Specialized Biocontainment Screening …, 2010)
